Laboratory results from patent EP0938471B1, “THE PREPARATION AND USE OF ORTHO-SULFONAMIDO ARYL HYDROXAMIC ACIDS AS MATRIX METALLOPROTEINASE AND TACE INHIBITORS” (priority 1996, dated 1998).
Where two headings read alike, the source gives them in different places.

Experiments:
Assay type in all cases: biochemical
MMP-1 = molecular target: T1, MMP-1 (Homo sapiens, UniProt P03956); experiment: MMP-1 inhibition (thiopeptide or fluorescent peptide substrate assay); settings: read-out: MMP-1 IC50
T1 sequence (P03956 100-469): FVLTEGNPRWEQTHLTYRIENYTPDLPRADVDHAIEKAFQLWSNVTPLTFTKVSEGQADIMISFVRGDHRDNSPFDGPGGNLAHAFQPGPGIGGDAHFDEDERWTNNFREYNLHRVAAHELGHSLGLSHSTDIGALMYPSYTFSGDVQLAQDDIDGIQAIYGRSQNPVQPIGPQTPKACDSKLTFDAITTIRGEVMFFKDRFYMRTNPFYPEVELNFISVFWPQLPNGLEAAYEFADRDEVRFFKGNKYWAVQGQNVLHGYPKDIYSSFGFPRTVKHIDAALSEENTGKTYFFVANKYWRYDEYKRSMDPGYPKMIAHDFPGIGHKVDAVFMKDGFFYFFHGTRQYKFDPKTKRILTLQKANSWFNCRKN

MMP-9 = MMP-9 (Homo sapiens, UniProt P14780); experiment: MMP-9 inhibition (thiopeptide or fluorescent peptide substrate assay); settings: read-out: MMP-9 IC50
MMP-13 = MMP-13 (Homo sapiens, UniProt P45452); experiment: MMP-13 inhibition (thiopeptide or fluorescent peptide substrate assay)
TACE = TACE (Homo sapiens, UniProt P78536); experiment: TACE inhibition (fluorescent peptidyl substrate); settings: for inhibition at 1 µM: at 1µM concentration
Chain of TACE (P78536 215-824): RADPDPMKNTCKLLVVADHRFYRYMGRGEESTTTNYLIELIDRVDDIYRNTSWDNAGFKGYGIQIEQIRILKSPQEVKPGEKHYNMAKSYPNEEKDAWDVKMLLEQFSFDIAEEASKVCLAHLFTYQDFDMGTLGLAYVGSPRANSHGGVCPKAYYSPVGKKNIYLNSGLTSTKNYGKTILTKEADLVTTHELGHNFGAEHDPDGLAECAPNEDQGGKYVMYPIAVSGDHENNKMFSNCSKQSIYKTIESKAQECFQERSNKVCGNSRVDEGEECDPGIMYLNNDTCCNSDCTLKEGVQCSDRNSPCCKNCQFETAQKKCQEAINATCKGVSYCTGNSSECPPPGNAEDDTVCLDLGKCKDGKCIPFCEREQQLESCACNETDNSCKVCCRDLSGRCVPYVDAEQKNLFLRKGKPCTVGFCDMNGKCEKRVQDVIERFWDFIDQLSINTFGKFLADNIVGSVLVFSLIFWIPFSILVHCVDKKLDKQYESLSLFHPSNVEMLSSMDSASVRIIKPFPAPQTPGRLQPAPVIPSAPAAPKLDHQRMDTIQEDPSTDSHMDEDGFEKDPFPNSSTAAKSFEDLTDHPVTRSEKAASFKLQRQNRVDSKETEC

Chain of MMP-9 (P14780 94-707): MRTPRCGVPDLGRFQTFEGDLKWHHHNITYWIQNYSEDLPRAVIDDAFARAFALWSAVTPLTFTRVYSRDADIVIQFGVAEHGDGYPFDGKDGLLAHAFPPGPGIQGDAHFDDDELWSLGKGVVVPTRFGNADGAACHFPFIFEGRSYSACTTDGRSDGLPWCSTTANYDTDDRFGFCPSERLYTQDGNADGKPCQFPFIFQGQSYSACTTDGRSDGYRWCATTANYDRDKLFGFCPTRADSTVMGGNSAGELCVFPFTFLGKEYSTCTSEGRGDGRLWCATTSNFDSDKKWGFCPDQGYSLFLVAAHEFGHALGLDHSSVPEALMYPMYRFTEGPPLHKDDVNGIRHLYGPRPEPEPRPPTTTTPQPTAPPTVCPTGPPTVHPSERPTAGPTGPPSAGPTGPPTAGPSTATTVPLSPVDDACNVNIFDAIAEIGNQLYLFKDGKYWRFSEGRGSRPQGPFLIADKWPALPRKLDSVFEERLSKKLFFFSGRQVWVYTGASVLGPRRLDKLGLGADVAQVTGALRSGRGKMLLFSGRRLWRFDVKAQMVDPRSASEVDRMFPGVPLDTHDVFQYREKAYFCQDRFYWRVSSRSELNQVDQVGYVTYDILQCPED

| IC50 (MMP-1) | IC50 (MMP-9) | IC50 (MMP-13; read-out: MMP-13 IC50) | IC50 (TACE; read-out: TACE IC50) | IC50 (TACE) | inhibition at 1 µM (TACE) | IC50 (MMP-13) | Structure (SMILES) |
| --- | --- | --- | --- | --- | --- | --- | --- |
| 553 nM | 353 nM | 728 nM | 1000 nM | – | – | – | COc1ccc(S(=O)(=O)N(Cc2ccccc2)c2ccc(C)cc2C(=O)NO)cc1 [Example 29, 2-[Benzyl-(4-methoxy-benzenesulfonyl)-amino]-N-hydroxy-5-methyl-benzamide] |
| 670 nM | 29 nM | 216 nM | > 1000 nM | – | – | – | COc1ccc(S(=O)(=O)N(Cc2ccccc2)c2c(OCC(F)(F)F)cccc2C(=O)NO)cc1 [Example 55, 2-[Benzyl-(4-methoxy-benzenesulfonyl)-amino]-N-hydroxy-3-(2,2,2-trifluoroethoxy)-benzamide] |
| > 1000 nM | 57 nM | 138 nM | > 1000 nM | – | – | – | COCCOCOc1cccc(C(=O)NO)c1N(Cc1ccccc1)S(=O)(=O)c1ccc(OC)cc1 [Example 56, 2-[Benzyl-(4-methoxy-benzenesulfonyl)-amino]-N-hydroxy-3-(2-methoxy-ethoxymethoxy)-benzamide] |
| > 500 nM | 12 nM | 33 nM | 1000 nM | – | – | – | COc1ccc(S(=O)(=O)N(Cc2ccccc2)c2c(OCc3ccc(C(=O)NO)cc3)cccc2C(=O)NO)cc1 [Example 57, 2-[Benzyl-(4-methoxy-benzenesulfonyl)-amino]-3-[4-(hydroxyaminocarbonyl)-benzyloxy]-N-hydroxy-benzamide] |
| 244 nM | 5 nM | 36 nM | 682 nM | – | – | – | COc1ccc(S(=O)(=O)N(Cc2ccccc2)c2c(OCCCC(=O)NO)cccc2C(=O)NO)cc1 [Example 58, 2-[Benzyl-(4-methoxy-benzenesulfonyl)-amino]-N-hydroxy-3-(3-hydroxycarbamoyl-propoxy)-benzamide] |
| 152 nM | 7 nM | 15 nM | 232 nM | – | – | – | COc1ccc(S(=O)(=O)N(Cc2ccccc2)c2c(OC(C)C)cccc2C(=O)NO)cc1 [Example 60, 2-[Benzyl-(4-methoxy-benzenesulfonyl)-amino]-N-hydroxy-3-isopropoxy-benzamide] |
| 153 nM | 874 nM | 1370 nM | > 1000 nM | – | – | – | Cc1cc(C)c(N(Cc2ccccc2)S(=O)(=O)c2ccc(F)cc2)c(C(=O)NO)c1 [Example 69, 2-[Benzyl-(4-fluoro-benzenesulfonyl)-amino]-N-hydroxy-3,5-dimethyl-benzamide] |
| > 1000 nM | 554 nM | 959 nM | – | 429 nM | – | – | Cc1cc(C)c(N(Cc2ccccc2)S(=O)(=O)c2ccc(OCc3ccccc3)cc2)c(C(=O)NO)c1 [Example 74, 2-[Benzyl-(4-benzyloxy-benzenesulfonyl)-amino]-N-hydroxy-3,5-dimethyl-benzamide] |
| 109 nM | 21 nM | 18 nM | 134 nM | – | – | – | C#Cc1cc(C)c(N(Cc2ccccc2)S(=O)(=O)c2ccc(OC)cc2)c(C(=O)NO)c1 [Example 80, 2-[Benzyl-(4-methoxy-benzenesulfonyl)-amino]-5-ethynyl-N-hydroxy-3-methyl-benzamide] |
| 132 nM | 15 nM | 11 nM | 50 nM | – | – | – | COc1ccc(S(=O)(=O)N(Cc2cccnc2)c2c(C)cc(C)cc2C(=O)NO)cc1 [Example 88, N-Hydroxy-2-[(4-methoxy-benzenesulfonyl)-pyridin-3-ylmethyl-amino]-3,5-dimethyl-benzamide] |
| 1000 nM | 276 nM | 209 nM | > 1000 nM | – | – | – | COc1ccc(S(=O)(=O)N(Cc2ccccc2)c2cc3ccccc3cc2C(=O)NO)cc1 [Example 94, 3-[Benzyl-(4-methoxy-benzenesulfonyl)-amino]-naphthalene-2-carboxylic acid hydroxyamide] |
| > 1000 nM | 11 nM | 20 nM | 173 nM | – | – | – | COc1ccc(S(=O)(=O)N(Cc2cccc(OC)c2)c2c(C)cc(C)cc2C(=O)NO)cc1 [Example 115, N-Hydroxy-2-[(4-methoxy-benzenesulfonyl)-(3-methoxy-benzyl)-amino]-3,5-dimethyl-benzamide] |
| 201 nM | 13 nM | 14 nM | 271 nM | – | – | – | COc1ccc(S(=O)(=O)N(Cc2c(F)c(F)c(OC)c(F)c2F)c2c(C)cc(C)cc2C(=O)NO)cc1 [Example 116, N-Hydroxy-2-[(4-methoxy-benzenesulfonyl)-(2,3,5,6-tetrafluoro-4-methoxy-benzyl)-amino]-3,5-dimethyl-benzamide] |
| 248 nM | 345 nM | 229 nM | > 1000 nM | – | – | – | COc1ccc(S(=O)(=O)N(Cc2ccccc2Br)c2c(C)cc(C)cc2C(=O)NO)cc1 [Example 118, 2-[(2-Bromo-benzyl)-(4-methoxy-benzenesulfonyl)-amino]-N-hydroxy-3,5-dimethyl-benzamide] |
| 223 nM | 27 nM | 14 nM | 252 nM | – | – | – | COc1ccc(S(=O)(=O)N(Cc2cccc(Br)c2)c2c(C)cc(C)cc2C(=O)NO)cc1 [Example 119, 2-[(3-Bromo-benzyl)-(4-methoxy-benzenesulfonyl)-amino]-N-hydroxy-3,5-dimethyl-benzamide] |
| 238 nM | 18 nM | 39 nM | 310 nM | – | – | – | COc1ccc(S(=O)(=O)N(Cc2ccc(Br)cc2)c2c(C)cc(C)cc2C(=O)NO)cc1 [Example 120, 2-[(4-Bromo-benzyl)-(4-methoxy-benzenesulfonyl)-amino]-N-hydroxy-3,5-dimethyl-benzamide] |
| 213 nM | 4 nM | 13 nM | 76 nM | – | – | – | COc1ccc(S(=O)(=O)N(C)c2c(C)cc(C)cc2C(=O)NO)cc1 [Example 130, N-Hydroxy-2-[(4-methoxy-benzenesulfonyl)-methyl-amino]-3,5-dimethyl-benzamide] |
| 212 nM | 54 nM | 48 nM | 80 nM | – | – | – | CCN(c1c(C)cc(C)cc1C(=O)NO)S(=O)(=O)c1ccc(OC)cc1 [Example 131, 2-[Ethyl-(4-methoxy-benzenesulfonyl)-amino]-N-hydroxy-3,5-dimethyl-benzamide] |
| 258 nM | 77 nM | 57 nM | 215 nM | – | – | – | COc1ccc(S(=O)(=O)N(Cc2cccnc2)c2c(Br)cc(C)cc2C(=O)NO)cc1 [Example 138, 3-Bromo-N-hydroxy-2-[(4-methoxy-benzenesulfonyl)-pyridin-3-ylmethyl-amino]-5-methyl-benzamide] |
| 347 nM | 12 nM | 39 nM | 176 nM | – | – | – | COc1ccc(S(=O)(=O)N(Cc2ccccc2)c2c(C(=O)NO)cccc2[N+](=O)[O-])cc1 [Example 170, 2-[Benzyl-(4-methoxy-benzenesulfonyl)-amino]-N-hydroxy-3-nitro-benzamide] |
| 323 nM | 16 nM | 71 nM | – | – | 50% | – | COc1ccc(S(=O)(=O)N(Cc2ccccc2)c2c(OCCCO)cccc2C(=O)NO)cc1 [Example 174, 2-[Benzyl-(4-methoxy-benzenesulfonyl)-amino]-N-hydroxy 3-(3-hydroxy-propoxy)-benzamide] |
| 90 nM | 7 nM | 4 nM | 57 nM | – | – | – | COc1ccc(S(=O)(=O)N(Cc2cccnc2)c2c(C)cc(-c3cccs3)cc2C(=O)NO)cc1 [Example 175, N-Hydroxy-2-[(4-methoxybenzenesulfonyl)-pyridin-3-ylmethyl-amino]-3-methyl-5-thiophen-2-yl benzamide] |
| 680 nM | 40 nM | 53 nM | – | – | 64% | – | COc1ccc(S(=O)(=O)N(Cc2ccccc2)c2c(C#N)cc(C)cc2C(=O)NO)cc1 [Example 179] |
| 37 nM | 13 nM | – | – | 61 nM | – | 1.4 nM | COc1ccc(S(=O)(=O)N(Cc2cccnc2)c2c(C(=O)NO)cc(C)cc2-c2ccco2)cc1 [Example 186, 3-Furan-2-yl-N-hydroxy-2-[(4-methoxybenzenesulfonyl)-pyridin-3-ylmethylamino]-5-methyl-benzamide] |

| Structure (SMILES) | IC50 (MMP-1) | IC50 (MMP-9) | IC50 (MMP-13; read-out: MMP-13 IC50) | IC50 (TACE; read-out: TACE IC50) | IC50 (TACE) | inhibition at 1 µM (TACE) | IC50 (MMP-13) |
| --- | --- | --- | --- | --- | --- | --- | --- |
| COc1ccc(S(=O)(=O)N(Cc2ccccc2)c2c(OCCCCC(=O)NO)cccc2C(=O)NO)cc1 [Example 59, 2-[Benzyl-(4-methoxy-benzenesulfonyl)-amino]-N-hydroxy-3-(4-hydroxycarbamoyl-butoxy)-benzamide] | 242 nM | 8 nM | 34 nM | > 1000 nM | – | – | – |
| COc1ccc(S(=O)(=O)N(Cc2ccccc2)c2c(C)cc(C)cc2C(=O)NO)cc1 [Example 68, 2-[Benzyl-(4-methoxy-benzenesulfonyl)-amino]-N-hydroxy-3,5-dimethyl-benzamide] | 82 nM | 21 nM | 15 nM | 239 nM | – | – | – |
| CCCCOc1ccc(S(=O)(=O)N(Cc2ccccc2)c2c(C)cc(C)cc2C(=O)NO)cc1 [Example 72, 2-[Benzyl-(4-butoxy-benzenesulfonyl)-amino]-N-hydroxy-3,5-dimethyl-benzamide] | > 1000 nM | 144 nM | 137 nM | 377 nM | – | – | – |
| CCN(CC)Cc1cccc(C(=O)NO)c1N(C)S(=O)(=O)c1ccc(OC)cc1 [Example 191, 3-Diethylaminomethyl-N-hydroxy-2-[(4-methoxybenzenesulfonyl)-methylamino]benzamide] | 1240 nM | 10 nM | 67 nM | 210 nM | – | – | – |
